Reference: patent US20230287316A1, “INTER-ORGAN PLATFORM WITH TISSUE-SPECIFIC NICHES FOR A MICROPHYSIOLOGICAL SYSTEM ON A CHIP” (THE TRUSTEES OF COLUMBIA UNIVERSITY IN THE CITY OF NEW YORK, priority 2020, published 2023)

Key:
phosphorylated IGF-1R = molecular target: T1, phosphorylated IGF-1R (Homo sapiens, UniProt P08069); experiment: Human Phospho-IGF1R ELISA in ES cell monolayers; assay type: cell-based; settings: 12 µM for 6 hours, non-metastatic and metastatic ES cell lines
T1 construct: both RD-ES and SK-N-MC monolayers were treated with 12 µM linsitinib for 6 hours, lysed; endogenous in cells; host or cells: RD-ES (ATCC HTB-166) and SK-N-MC (ATCC HTB-10) Ewing sarcoma cell lines

cardiac tissues = experiment: Linsitinib on cardiac tissue in the integrated platform with microfluidic perfusion; assay type: cell-based, human
Description: The TE-ES and cardiac tissues were then cultured in the integrated platform with perfusion of mixed media. Linsitinib was introduced into the reservoir and delivered to tissues via circulation of perfusate and diffusion into the tissues.
FIGS. 35A-E show aspects of responses of human engineered bone ES tumors and cardiac tissues to linsitinib in the integrated platform with microfluidic perfusion. FIGS. 35A and 35B show the responses when non-metastatic ES bone tumors and cardiac tissues were exposed to linsitinib (12 µM) over a period of 72 hours in either isolated culture or within the perfused integrated platform. Luminescence (FIG. 35A) and LDH secretion (FIG. 35B) as functions of cancer cell number and viability as well as cytotoxicity, respectively, were measured (mean± s.e.m., n = 3).
(§1) To measure the cardiac contractility online, we took contractility videos of the tissues that were analyzed using the native MATLAB code we previously developed. Tissue contractility was measured by tracking the change in tissue area as a function of time. Acquired video frames were inverted and an automated intensity threshold was used to identify cell location in the video frame. First, a baseline time point in the video corresponding to a relaxed tissue state was selected. Absolute differences in cell area from the baseline frame were then calculated to create a time course of cell area changes over time. The resulting time courses were analyzed using a native MATLAB (MATHWorks) automated peak finding algorithm to determine locations of maximum cell contractions in the time profiles. Beat period lengths were determined from the length of time between the pairs of local maxima, and the beat frequencies were determined by inverting beat periods. The rate of proarrhythmic events was calculated by the ratio of the number of proarrhythmic events over the total number of beats.

[1] = system: tumors from metastatic cells; experiment: Linsitinib in bioengineered tumors from metastatic OS cells; assay type: cell-based, human; settings: 12 µM, for 3 weeks
Description: (§2) We tested the drug Linsitinib—a potent tyrosine kinase inhibitor targeting the IGF-1 receptor (IGF-1R) —in metastatic and non-metastatic OS models (FIG. 17C). The drug was administered (12 µM, for 3 weeks), as per an ongoing Phase II Eurosarc trial in patients with advanced Ewing sarcoma.

[2] = system: metastatic TE-ES (SK-N-MC) bone tumor; experiment: Linsitinib on metastatic engineered ES bone tumors (TE-ES) cultured in isolation; assay type: cell-based, human; settings: 12 µM
Description: (§3) FIGS. 32A-D show aspects of responses of human engineered bone ES tumors and cardiac tissues to linsitinib in isolated platform chambers. […] Luminescence as a function of cancer cell number and viability was measured (mean± s.e.m., n = 6 for day 3, and n = 3 for day 7 and 21).
Supernatants were collected from each individual sample across the duration of the drug treatments and were analyzed for osteoblast function (OCN, OPN) and for cytotoxicity (LDH) (mean± s.e.m., n = 3).
Two weeks following the initiation of osteogenic differentiation, aggregates of ES tumor cells were prepared as described previously, using 0.3 × 10^6 cells per aggregate. After 1 week of culture, corresponding to the end of bone tissue culture (3 weeks), the primary ES cell aggregates were placed into the engineered bone constructs (3 aggregates per construct, placed apart of each other). Tumor models were established for two different types of primary ES cells: non-metastatic (RD-ES) and metastatic (SK-N-MC). Tissue engineered RD-ES and SK-N-MC tumors were cultured in the RPMI and EMEM media, respectively, supplemented with 10% FBS and 1% penicillin/streptomycin. Bone constructs cultured without tumor cell aggregates (TE-bone) in RPMI and EMEM media were used as controls.
(§4) Cell viability was analyzed using a previously established protocol.^59 Cancer cell viability was measured for GFP-Luciferase labelled cancer cells using ONE-Glo luciferase substrate that was prepared according to manufacturer’s protocol (Promega). Samples were collected following 3, 7, and 21 days cycles of linsitinib treatment. Where noted, longitudinal cell viability was also assessed using luminescence, though at the cost of signal strength. Briefly, in vivo grade VivoGlo™ Luciferin (Promega) was made at a 200x stock concentration (30 mg/ml) in water, added to sample culture media at a 1:200 dilution, and scanned using a spectrophotometer (Biotek). Some of the IC50 values were determined using cell viability data generated using an MTT assay (RealTime-Glo™ MT Cell Viability Assay, Promega) that were analyzed according to manufacturer’s protocol.
(§5) Osteocalcin (OCN), osteopontin (OPN), and lactic acid dehydrogenase (LDH) secreted levels were all measured using a similar approach. Supernatants were isolated from controls and drug treated TE-ES and equal amounts were used in each assay according to the manufacturer’s instructions. For OCN a Human Osteocalcin Quantikine^R ELISA (R&D Systems) was used, while for OPN it was a Human Osteopontin Quantikine^R ELISA (R&D Systems). LDH secretion was determined using a Lactate Dehydrogenase Assay Kit (Colorimetric; Abcam).

[3] = system: tumors engineered from non-metastatic OS cells; experiment: Linsitinib in bioengineered tumors from non-metastatic OS cells; assay type: cell-based, human; settings: 12 µM, for 3 weeks
Description: as §2

[4] = system: engineered cardiac tissues; experiment: Linsitinib on engineered cardiac tissues cultured in isolation; assay type: cell-based, human; settings: isolated
Description: as §3
Specifically, linsitinib was dissolved at a 10 mM concentration in DMSO (Corning) and mixed in with the respective cell medium at a […] concentration unless otherwise noted. Vehicle treatments involved just the addition of DMSO at identical volumes as a control. Tissues were randomly assigned to experimental groups. Medium was changed every day.
as §1

[5] = system: non-metastatic TE-ES bone tumor; experiment: Linsitinib on non-metastatic TE-ES in 1:1 mixed media; assay type: cell-based, human; settings: 12 µM regimen
Description: as §4, §5

T1 sequence (P08069 31-1367): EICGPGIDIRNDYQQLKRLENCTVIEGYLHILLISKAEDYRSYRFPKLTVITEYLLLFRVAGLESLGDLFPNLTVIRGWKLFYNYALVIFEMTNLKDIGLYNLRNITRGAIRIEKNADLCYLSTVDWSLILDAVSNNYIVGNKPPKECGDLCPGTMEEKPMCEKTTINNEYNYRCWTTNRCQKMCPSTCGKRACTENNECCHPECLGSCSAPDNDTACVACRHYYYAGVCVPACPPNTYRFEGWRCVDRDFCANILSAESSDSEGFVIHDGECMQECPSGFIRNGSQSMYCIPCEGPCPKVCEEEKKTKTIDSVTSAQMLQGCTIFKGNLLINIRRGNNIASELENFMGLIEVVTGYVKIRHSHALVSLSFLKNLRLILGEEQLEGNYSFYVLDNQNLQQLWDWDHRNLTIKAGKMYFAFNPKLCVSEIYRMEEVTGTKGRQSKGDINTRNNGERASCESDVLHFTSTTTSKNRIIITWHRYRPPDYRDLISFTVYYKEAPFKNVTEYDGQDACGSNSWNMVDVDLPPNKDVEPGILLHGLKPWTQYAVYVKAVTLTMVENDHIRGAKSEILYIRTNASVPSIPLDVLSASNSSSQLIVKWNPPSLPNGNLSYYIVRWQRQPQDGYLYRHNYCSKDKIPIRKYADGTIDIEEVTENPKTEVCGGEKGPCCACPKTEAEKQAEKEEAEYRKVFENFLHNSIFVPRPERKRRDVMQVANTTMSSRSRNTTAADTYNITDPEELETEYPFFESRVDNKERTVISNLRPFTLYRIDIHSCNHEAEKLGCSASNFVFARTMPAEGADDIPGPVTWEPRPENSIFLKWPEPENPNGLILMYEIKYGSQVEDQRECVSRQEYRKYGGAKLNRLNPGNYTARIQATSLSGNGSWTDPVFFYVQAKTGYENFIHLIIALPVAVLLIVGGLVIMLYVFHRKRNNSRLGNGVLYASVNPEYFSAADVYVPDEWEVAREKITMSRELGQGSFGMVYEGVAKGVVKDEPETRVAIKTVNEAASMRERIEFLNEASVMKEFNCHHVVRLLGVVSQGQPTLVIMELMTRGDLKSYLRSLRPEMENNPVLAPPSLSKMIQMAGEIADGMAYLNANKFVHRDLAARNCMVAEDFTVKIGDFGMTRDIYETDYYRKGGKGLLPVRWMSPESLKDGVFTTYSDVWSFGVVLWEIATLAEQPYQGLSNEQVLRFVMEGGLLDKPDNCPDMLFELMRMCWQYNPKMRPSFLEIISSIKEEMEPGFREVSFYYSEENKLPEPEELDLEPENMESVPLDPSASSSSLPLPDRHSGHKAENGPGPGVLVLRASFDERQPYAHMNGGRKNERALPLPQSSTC

levels of phosphorylated IGF-1R (phosphorylated IGF-1R): significant decreases
response to subsequent isoproterenol exposure (cardiac tissues; after 12 µM linsitinib, integrated platform): expected inotropic response
beating frequency ([4]; 12 µM, after 3 days of exposure): increased beating frequency
response to subsequent isoproterenol exposure ([4]; after 12 µM linsitinib): the inotropic response was not observed
Structure (SMILES): C[C@]1(O)C[C@@H](c2nc(-c3ccc4ccc(-c5ccccc5)nc4c3)c3c(N)nccn32)C1 [linsitinib]
rate of proarrhythmic events (cardiac tissues; 12 µM, integrated model): approximately 11%
beat frequency (cardiac tissues; 12 µM, integrated platform): did not observe linsitinib-mediated changes in beat frequency
overall cardiotoxicity (cardiac tissues; integrated platform): mild cardiotoxicity
tumor viability [1]: no effect
LDH secretion (cytotoxicity) ([2]; 3-week regimen, supernatants): spiked
Osteocalcin secretion ([2]; 3-week regimen, supernatants): decreased
cancer cell population (luminescence) ([2]; 21-day clinical treatment regimen): decrease in drug efficacy, as the cancer cell population continued to expand over the 21-day treatment cycle
drug response (luminescence) ([2]; after 3 days): significant drug response
osteopontin secretion ([2]; throughout the 21 days): decreased similar to osteocalcin
tumor viability [3]: significant viability reduction
rate of proarrhythmic events per beat ([4]; 12 µM): around 36%
OCN secretion [5]: increased only slightly
cancer cell population level (luminescence) [5]: ~ 30 % of their starting population
